ChEMBL document CHEMBL1201862, “PubChem BioAssay data set” (2004)
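Test compounds were applied to cells in 96-well plates for 48 hours at 5 doses. At the GI50, growth is halved.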 The source made the active and inactive calls. Rule as the data show it: active = GI50 up to about 1.1 µM and inactive = higher.

Experiments:
Test in all cases: NCI anticancer screen, dose series, 48 h
SW-620 = system: SW-620
SF-295 = system: SF-295
NCI/ADR-RES = system: NCI/ADR-RES
HOP-62 = system: HOP-62
SF-268 = system: SF-268
SNB-19 = system: SNB-19
IGROV-1 = system: IGROV-1
UACC-257 = system: UACC-257
M14 = system: M14
OVCAR-5 = system: OVCAR-5
NCI-H522 = system: NCI-H522
HL-60 = system: HL-60
A549 = system: A549
RXF 393 = system: RXF 393
LOX IMVI = system: LOX IMVI
SK-MEL-28 = system: SK-MEL-28
KM12 = system: KM12
T47D = system: T47D
CCRF-CEM = system: CCRF-CEM
SR = system: SR

Row | SMILES | GI50 (SW-620) | GI50 (SF-295) | GI50 (NCI/ADR-RES) | GI50 (HOP-62) | GI50 (SF-268) | GI50 (SNB-19) | GI50 (IGROV-1) | GI50 (UACC-257) | GI50 (M14) | GI50 (OVCAR-5) | GI50 (NCI-H522) | GI50 (HL-60) | GI50 (A549) | GI50 (RXF 393) | GI50 (LOX IMVI) | GI50 (SK-MEL-28) | GI50 (KM12) | GI50 (T47D) | GI50 (CCRF-CEM) | GI50 (SR)
1 | C=CCCCCCCCCCOC1C=CC(O)C(CO)O1 (centres undefined) | 43.5 µM (inactive) | 66.2 µM (inactive) | 43.6 µM (inactive) | 50.5 µM (inactive) | 54.8 µM (inactive) | 54.8 µM (inactive) | 16.6 µM (inactive) | 23.7 µM (inactive) | 18.6 µM (inactive) | 68.4 µM (inactive) | 33.2 µM (inactive) | 21.9 µM (inactive) | 42.4 µM (inactive) | 95.9 µM (inactive) | 31.6 µM (inactive) | 41.6 µM (inactive) | 27.2 µM (inactive) | 52.2 µM (inactive) | – | –
2 | COc1ccccc1/N=N/C(=N/NC(=O)c1ccc(C)cc1)c1ccc(N(CCC#N)CCC#N)cc1OC | 38.1 µM (inactive) | 41 µM (inactive) | > 100 µM (inactive) | 40.5 µM (inactive) | 30.5 µM (inactive) | 30.8 µM (inactive) | 37.6 µM (inactive) | 38.3 µM (inactive) | 29.4 µM (inactive) | > 100 µM (inactive) | 33.7 µM (inactive) | 10.8 µM (inactive) | 33.5 µM (inactive) | 22.9 µM (inactive) | 33.4 µM (inactive) | 36 µM (inactive) | 26.8 µM (inactive) | 18.7 µM (inactive) | 18.6 µM (inactive) | –
3 | C=C(C)COC1CCCCO1 (centres undefined) | > 100 µM (inactive) | > 100 µM (inactive) | > 100 µM (inactive) | > 100 µM (inactive) | > 100 µM (inactive) | > 100 µM (inactive) | > 100 µM (inactive) | > 100 µM (inactive) | > 100 µM (inactive) | > 100 µM (inactive) | > 100 µM (inactive) | > 100 µM (inactive) | > 100 µM (inactive) | – | > 100 µM (inactive) | > 100 µM (inactive) | > 100 µM (inactive) | > 100 µM (inactive) | > 100 µM (inactive) | > 10 µM (inactive)
4 | CO/C=C(/C(=O)OC)c1ccccc1Oc1c(F)c(F)c(F)c(F)c1F | – | 54.5 µM (inactive) | 40.7 µM (inactive) | 53.6 µM (inactive) | 50.1 µM (inactive) | 57.4 µM (inactive) | 29.3 µM (inactive) | 24.9 µM (inactive) | 35.3 µM (inactive) | > 100 µM (inactive) | – | < 0.01 µM (active) | 34.8 µM (inactive) | 20.7 µM (inactive) | 32.4 µM (inactive) | 55.7 µM (inactive) | 24 µM (inactive) | 21.2 µM (inactive) | 30.1 µM (inactive) | –
5 | CC1=C(C(=O)NCCc2ccccc2)CC(C(=O)NCCc2ccccc2)=C(C)N1 | > 100 µM (inactive) | > 100 µM (inactive) | > 100 µM (inactive) | 75.3 µM (inactive) | 61 µM (inactive) | 6.1 µM (inactive) | 54.8 µM (inactive) | > 100 µM (inactive) | > 100 µM (inactive) | > 100 µM (inactive) | 47.4 µM (inactive) | 31.7 µM (inactive) | > 100 µM (inactive) | 35.8 µM (inactive) | > 100 µM (inactive) | – | 38.3 µM (inactive) | 64.6 µM (inactive) | 27.8 µM (inactive) | –
6 | CC(C)(C)OC(=O)NCCc1ccc(N)cc1 | > 100 µM (inactive) | 49.2 µM (inactive) | 32.4 µM (inactive) | > 100 µM (inactive) | > 100 µM (inactive) | > 100 µM (inactive) | > 100 µM (inactive) | 72.8 µM (inactive) | > 100 µM (inactive) | – | > 100 µM (inactive) | 17.5 µM (inactive) | > 100 µM (inactive) | – | > 100 µM (inactive) | > 100 µM (inactive) | – | 74.5 µM (inactive) | > 100 µM (inactive) | 55.6 µM (inactive)
7 | CC(C)(O)/C1=C/C=C/CCCCCCCCCC1 | > 100 µM (inactive) | > 100 µM (inactive) | > 100 µM (inactive) | > 100 µM (inactive) | > 100 µM (inactive) | > 100 µM (inactive) | > 100 µM (inactive) | > 100 µM (inactive) | > 100 µM (inactive) | > 100 µM (inactive) | 95.9 µM (inactive) | 28.9 µM (inactive) | – | – | > 100 µM (inactive) | > 100 µM (inactive) | > 100 µM (inactive) | > 100 µM (inactive) | 30.3 µM (inactive) | 34 µM (inactive)
8 | COC1=CC(=O)c2c(O)ccc(O)c2C1=O | 3.85 µM (inactive) | 2 µM (inactive) | 19.8 µM (inactive) | 2.19 µM (inactive) | 7.26 µM (inactive) | 4.75 µM (inactive) | 18.1 µM (inactive) | 1.52 µM (inactive) | 0.689 µM (active) | 18.4 µM (inactive) | 11.5 µM (inactive) | 3.77 µM (inactive) | 1.98 µM (inactive) | 16.6 µM (inactive) | – | 1.92 µM (inactive) | 6.93 µM (inactive) | 18.1 µM (inactive) | 8.57 µM (inactive) | –
9 | COc1ccccc1Nc1nc(NNC(=O)Cc2ccccc2)nc(NNC(=O)c2ccncc2)n1 | > 10 µM (inactive) | – | > 10 µM (inactive) | > 10 µM (inactive) | > 10 µM (inactive) | – | > 10 µM (inactive) | > 10 µM (inactive) | > 10 µM (inactive) | – | – | > 10 µM (inactive) | > 10 µM (inactive) | – | > 10 µM (inactive) | > 10 µM (inactive) | > 10 µM (inactive) | > 10 µM (inactive) | > 10 µM (inactive) | > 10 µM (inactive)
10 | CC1(C)[C@@H](Cn2cnc3c(O)nc(N)nc32)CC[C@@]1(C)CO | > 100 µM (inactive) | > 100 µM (inactive) | > 100 µM (inactive) | > 100 µM (inactive) | > 100 µM (inactive) | > 100 µM (inactive) | – | > 100 µM (inactive) | > 100 µM (inactive) | > 100 µM (inactive) | – | – | > 100 µM (inactive) | > 100 µM (inactive) | > 100 µM (inactive) | > 100 µM (inactive) | > 100 µM (inactive) | > 100 µM (inactive) | > 100 µM (inactive) | –
11 | CC(C)(C)OC(=O)C1=C(C(=O)OC(C)(C)C)SC2(S1)C(C(=O)OC(C)(C)C)=C(C(=O)OC(C)(C)C)Sc1c2ssc1=O | 26.4 µM (inactive) | > 100 µM (inactive) | > 100 µM (inactive) | 64.9 µM (inactive) | 60.1 µM (inactive) | > 100 µM (inactive) | 59.4 µM (inactive) | > 100 µM (inactive) | 95.7 µM (inactive) | 59.8 µM (inactive) | 49.3 µM (inactive) | 39.4 µM (inactive) | 72.3 µM (inactive) | 45.2 µM (inactive) | 34.7 µM (inactive) | 73.1 µM (inactive) | > 100 µM (inactive) | 61 µM (inactive) | 18.1 µM (inactive) | –
